Test results as given in patent publication US10196357B2, “Biaryl compositions and methods for modulating a kinase cascade” (Athenex, Inc., priority 2007, dated 2019).

What was measured:
[1] = tested on: Daoy; assay: brain tumor cell growth inhibition, Daoy; assay type: cell-based, Human; settings: desmoplastic cerebellar medulloblastoma, read-out: IC50 (title: GI50)
[2] = tested on: Caki-2; assay: renal tumor cell growth inhibition, Caki-2; assay type: cell-based, Human; settings: Caki-2, clear cell carcinoma
Experimental: (§1) These GI50s were determined using standard tumor growth inhibition assays, similar to those described in detail in this Example 7.

[3] = tested on: ACHN; assay: renal tumor cell growth inhibition, ACHN; assay type: cell-based, Human; settings: renal cell adenocarcinoma
Experimental: as §1

[4] = tested on: FAK Y397; assay: FAK autophosphorylation in cells; assay type: cell-based; settings: c-Src527F/NIH3T3 cells
Experimental: HT29 (colon cancer) and c-Src527F/NIH-3T3 (Src transformed) cell lines were treated with KX2-391 or with AstraZeneca's ATP competitive Src inhibitor AZ28. AZ28 serves as a positive comparator to show what a validated Src inhibitor should do in these assays. After treatment with compound, cells were lysed, subjected to PAGE and probed with a battery of antibodies. […] In addition, off-target protein phosphorylation was also investigated. Further, induction of apoptosis was evaluated via Caspase 3 cleavage. Multiple doses of each compound were tested because the trends in response to increasing drug concentration are the most reliable indicator of activity.
The same range of multiples of the GI50 for AZ28 in these two cell lines was run as a comparison.
FAK Y397 is mainly a FAK autophosphorylation site and only a poor Src transphorylation site. AZ28 is […] a potent FAK inhibitor (see isolated enzyme data in Table 8). However, no inhibition of FAK autophosphorylation in c-Src527F/NIH3T3 cells is seen with KX-391.

[5] = tested on: Lyn Y416; assay: whole cell phosphorylation, Lyn; assay type: cell-based; settings: whole cells
[6] = tested on: HT29 (human colon cancer); settings: KXO1 2.0 and 4 mg/kg bid vs Dasatinib 25 then 15 mg/kg bid, 28 days
[7] = target: IGF-1R(h) (Homo sapiens, UniProt P08069); assay: isolated kinase activity, IGF-1R; assay type: biochemical; settings: compound @ 10 μM
Sequence of IGF-1R(h) (P08069 31-1367): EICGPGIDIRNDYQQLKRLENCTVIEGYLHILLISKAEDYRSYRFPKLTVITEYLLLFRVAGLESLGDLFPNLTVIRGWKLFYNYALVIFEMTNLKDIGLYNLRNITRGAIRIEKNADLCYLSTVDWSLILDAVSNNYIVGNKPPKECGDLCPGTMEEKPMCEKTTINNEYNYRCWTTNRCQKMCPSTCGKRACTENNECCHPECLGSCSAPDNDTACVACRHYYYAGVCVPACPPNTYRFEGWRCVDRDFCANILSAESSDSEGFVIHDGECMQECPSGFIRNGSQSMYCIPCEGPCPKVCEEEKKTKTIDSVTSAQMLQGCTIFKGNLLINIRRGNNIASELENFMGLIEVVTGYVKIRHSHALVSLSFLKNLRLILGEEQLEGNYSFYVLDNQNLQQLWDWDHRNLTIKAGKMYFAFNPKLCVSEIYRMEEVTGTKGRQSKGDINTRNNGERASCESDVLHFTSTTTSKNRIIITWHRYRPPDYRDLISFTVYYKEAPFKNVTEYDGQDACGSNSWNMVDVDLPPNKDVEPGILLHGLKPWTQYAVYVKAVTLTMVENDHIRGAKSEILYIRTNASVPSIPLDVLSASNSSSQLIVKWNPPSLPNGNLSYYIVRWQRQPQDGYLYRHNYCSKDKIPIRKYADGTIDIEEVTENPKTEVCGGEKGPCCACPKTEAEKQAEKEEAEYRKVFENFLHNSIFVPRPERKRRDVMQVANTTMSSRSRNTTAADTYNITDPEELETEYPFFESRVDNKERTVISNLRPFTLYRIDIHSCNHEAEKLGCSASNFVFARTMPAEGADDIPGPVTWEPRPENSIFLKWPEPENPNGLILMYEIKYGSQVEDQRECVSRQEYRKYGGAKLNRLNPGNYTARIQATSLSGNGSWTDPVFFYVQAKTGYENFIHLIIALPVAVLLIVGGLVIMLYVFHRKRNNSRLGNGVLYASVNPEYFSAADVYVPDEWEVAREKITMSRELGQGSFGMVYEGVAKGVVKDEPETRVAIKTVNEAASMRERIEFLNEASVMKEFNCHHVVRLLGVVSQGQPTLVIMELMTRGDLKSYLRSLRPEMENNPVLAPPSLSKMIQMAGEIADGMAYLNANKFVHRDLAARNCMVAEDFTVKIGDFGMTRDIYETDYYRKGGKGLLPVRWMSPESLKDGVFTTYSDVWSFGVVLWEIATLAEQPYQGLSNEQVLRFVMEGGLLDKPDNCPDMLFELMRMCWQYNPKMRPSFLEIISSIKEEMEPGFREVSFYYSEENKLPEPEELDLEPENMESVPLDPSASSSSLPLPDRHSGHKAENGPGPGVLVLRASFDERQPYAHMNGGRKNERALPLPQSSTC
Source text: (§2) Table 8 illustrates percent activity of isolated kinases in the presence of the AstraZeneca ATP-competitive inhibitor (KX2-328, AZ-28) or KX2-391 relative to control (untreated) isolated kinases.

[8] = target: IR(h) (Homo sapiens, UniProt P06213); assay: isolated kinase activity, IR; assay type: biochemical; settings: compound @ 10 μM
Sequence of IR(h) (P06213 28-1382): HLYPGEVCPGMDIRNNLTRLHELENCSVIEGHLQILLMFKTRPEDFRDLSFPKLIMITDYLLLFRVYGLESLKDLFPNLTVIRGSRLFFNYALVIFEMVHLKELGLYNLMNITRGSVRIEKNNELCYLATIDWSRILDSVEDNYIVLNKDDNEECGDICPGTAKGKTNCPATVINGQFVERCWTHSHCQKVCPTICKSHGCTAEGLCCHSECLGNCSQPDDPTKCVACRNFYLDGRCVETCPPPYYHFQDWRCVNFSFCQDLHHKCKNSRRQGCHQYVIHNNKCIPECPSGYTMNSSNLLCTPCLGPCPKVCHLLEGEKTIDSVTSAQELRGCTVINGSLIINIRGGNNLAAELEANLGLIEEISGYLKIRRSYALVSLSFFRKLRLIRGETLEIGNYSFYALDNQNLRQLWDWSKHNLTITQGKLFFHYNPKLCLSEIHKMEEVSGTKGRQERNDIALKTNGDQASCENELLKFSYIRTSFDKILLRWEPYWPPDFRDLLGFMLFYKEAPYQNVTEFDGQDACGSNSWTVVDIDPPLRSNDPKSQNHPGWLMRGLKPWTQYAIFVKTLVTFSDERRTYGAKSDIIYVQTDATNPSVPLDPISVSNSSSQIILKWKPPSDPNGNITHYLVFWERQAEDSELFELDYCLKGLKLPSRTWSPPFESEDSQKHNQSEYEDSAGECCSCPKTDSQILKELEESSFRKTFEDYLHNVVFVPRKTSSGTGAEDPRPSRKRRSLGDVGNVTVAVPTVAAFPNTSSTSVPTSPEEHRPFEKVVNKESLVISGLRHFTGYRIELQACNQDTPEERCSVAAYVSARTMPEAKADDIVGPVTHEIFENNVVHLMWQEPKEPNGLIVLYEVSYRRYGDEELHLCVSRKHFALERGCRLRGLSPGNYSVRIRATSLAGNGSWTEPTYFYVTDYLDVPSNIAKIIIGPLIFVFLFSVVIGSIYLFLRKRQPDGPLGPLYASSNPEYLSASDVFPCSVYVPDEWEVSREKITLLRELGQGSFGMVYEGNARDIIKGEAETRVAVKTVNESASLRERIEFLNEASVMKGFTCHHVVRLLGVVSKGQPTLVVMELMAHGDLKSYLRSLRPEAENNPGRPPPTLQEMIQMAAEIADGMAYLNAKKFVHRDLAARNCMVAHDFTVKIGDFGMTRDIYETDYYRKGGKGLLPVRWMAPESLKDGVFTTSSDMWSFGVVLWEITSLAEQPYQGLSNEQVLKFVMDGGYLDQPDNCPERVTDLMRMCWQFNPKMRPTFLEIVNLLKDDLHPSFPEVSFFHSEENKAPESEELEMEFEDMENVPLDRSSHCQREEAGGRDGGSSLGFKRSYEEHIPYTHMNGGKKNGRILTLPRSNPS
Source text: as §2

[9] = target: PKCα(h) (Homo sapiens, UniProt P17252); assay: isolated kinase activity, PKCα; assay type: biochemical; settings: compound @ 10 μM
Source text: as §2

[10] = target: Yes(h) (Homo sapiens, UniProt P07947); assay: isolated kinase activity, Yes; assay type: biochemical; settings: compound @ 10 μM
Sequence of Yes(h) (P07947 whole entry): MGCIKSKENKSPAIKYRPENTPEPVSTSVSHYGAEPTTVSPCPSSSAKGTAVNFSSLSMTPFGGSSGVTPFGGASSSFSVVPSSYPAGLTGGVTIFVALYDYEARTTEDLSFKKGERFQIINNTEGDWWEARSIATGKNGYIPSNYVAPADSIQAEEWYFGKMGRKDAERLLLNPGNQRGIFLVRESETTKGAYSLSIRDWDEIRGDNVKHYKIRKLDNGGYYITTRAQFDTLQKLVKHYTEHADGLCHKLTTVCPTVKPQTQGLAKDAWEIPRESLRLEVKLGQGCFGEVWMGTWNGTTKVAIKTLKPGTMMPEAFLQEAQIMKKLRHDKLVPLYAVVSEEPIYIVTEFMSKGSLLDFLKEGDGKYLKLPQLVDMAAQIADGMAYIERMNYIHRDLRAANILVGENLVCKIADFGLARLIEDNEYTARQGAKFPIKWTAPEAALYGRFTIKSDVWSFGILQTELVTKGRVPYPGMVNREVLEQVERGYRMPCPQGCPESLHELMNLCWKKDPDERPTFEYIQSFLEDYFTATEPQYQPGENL
Source text: as §2

[11] = tested on: PI3 kinase; assay: isolated kinase activity, PI3 kinase; assay type: biochemical; settings: compound @ 10 μM
Source text: as §2

| SMILES | IC50 [1] [nM] | GI50 [2] [nM] | GI50 [3] [nM] | FAK Y397 autophosphorylation [4] | phosphorylation of Lyn Y416 [5] | oral potency in staged HT29 mouse xenografts [6] | percent activity of isolated kinase relative to control [7] [%] | percent activity of isolated kinase relative to control [8] [%] | percent activity of isolated kinase relative to control [9] [%] | percent activity of isolated kinase relative to control [10] [%] | percent activity of isolated kinase relative to control [11] [%] |
| --- | --- | --- | --- | --- | --- | --- | --- | --- | --- | --- | --- |
| O=C(Cc1ccc(-c2ccc(OCCN3CCOCC3)cc2)cn1)NCc1ccccc1 [KXO1] | 13.6 | 39.2 | 33.2 | no inhibition | inhibited less potently | higher oral potency |  |  |  |  |  |
| O=C(Cc1ccc(-c2ccc(OCCN3CCOCC3)cc2)cn1)NCc1ccccc1 [KX2-391] |  |  |  |  |  |  | 101 | 112 | 111 | 92 | 100 |
